The values below come from patent US5189157A, “Antibacterial cephalosporin compounds” (Hoffmann La Roche Inc., priority 1988, dated 1993).

The structures appear in SMILES notation. Where a name gives a salt, the structure may show the parent alone.

Assay type in all cases: cell-based
The subject of one experiment is P. aeruginosa B. The experiment can be described thus: In Vitro MIC, Broth Dilution Method. Conditions: Pseudomonas aeruginosa. In general terms: In broth dilution the organism is exposed to a series of concentrations in liquid medium.
Experiment [1] relates to P. aeruginosa Stone 130. As to the kind of experiment: In Vitro MIC, Broth Dilution Method. To be noted: Pseudomonas aeruginosa, STONE130.
In another experiment the test system is P. aeruginosa ATCC 27853. The experiment can be described thus: In Vitro MIC, Broth Dilution Method. To be noted: Pseudomonas aeruginosa, ATCC27853.
A further experiment relates to P. aeruginosa 1973E. As to the kind of experiment: In Vitro MIC, Broth Dilution Method. Conditions: Pseudomonas aeruginosa. An excerpt:
(§1) The in vitro activity of the compounds of the present invention as measured by the Minimum Inhibitory Concentration in micrograms/ml utilizing the Agar Well Diffusion Method, Agar Dilution Method or Broth Dilution Method against a variety of Gram-positive and Gram-negative organisms, is as follows:
(§2) In Vitro MIC (μg/ml) Broth Dilution Method

Another experiment deals with P. aeruginosa 503-56. As to the kind of experiment: In Vitro MIC, Broth Dilution Method. To be noted: Pseudomonas aeruginosa, 50356.
Excerpt: as §1, §2

The test system of another experiment is P. aeruginosa 5700. The experiment can be described thus: In Vitro MIC, Broth Dilution Method. To be noted: Pseudomonas aeruginosa.
Excerpt: as §1, §2

A further experiment deals with P. aeruginosa 765. As to the kind of experiment: In Vitro MIC, Broth Dilution Method. Conditions: Pseudomonas aeruginosa.
Excerpt: as §1, §2

Another experiment concerns P. aeruginosa 8710. The experiment can be described thus: In Vitro MIC, Broth Dilution Method. To be noted: Pseudomonas aeruginosa.
Excerpt: as §1, §2

Another experiment concerns P. aeruginosa K77/WT. The experiment can be described thus: In Vitro MIC, Broth Dilution Method. Conditions: Pseudomonas aeruginosa.
Excerpt: as §1, §2

The next experiment relates to P. aeruginosa 8780. As to the kind of experiment: In Vitro MIC, Broth Dilution Method. Conditions: Pseudomonas aeruginosa, 8780, read-out: In Vitro MIC.
In the next experiment the test system is P. aeruginosa 6148B. The experiment can be described thus: In Vitro MIC, Broth Dilution Method. To be noted: Pseudomonas aeruginosa.
Another experiment deals with E. cloaca P99. The experiment can be described thus: In Vitro MIC, Agar Dilution Method.
Excerpt: as §1
(§3) In Vitro MIC (μg/ml) Agar Dilution Method
(In agar dilution, organisms are placed on agar that contains the substance at set levels.)

The next experiment concerns E. cloacae 9570A. As to the kind of experiment: In Vitro MIC, Agar Dilution Method. To be noted: Enterobacter cloacae.
Excerpt: as §1, §3

The next experiment has as its system E. coli 48. As to the kind of experiment: In Vitro MIC, Agar Dilution Method. To be noted: Escherichia coli.
Excerpt: as §1, §3

A further experiment has as its system K. pneumoniae A. As to the kind of experiment: In Vitro MIC, Agar Dilution Method. To be noted: Klebsiella pneumoniae.
Excerpt: as §1, §3

The test system of another experiment is P. aeruginosa 130. As to the kind of experiment: In Vitro MIC, Agar Dilution Method. To be noted: Pseudomonas aeruginosa.
Excerpt: as §1, §3

In the next experiment the test system is P. aeruginosa 185/H. As to the kind of experiment: In Vitro MIC, Agar Dilution Method. To be noted: Pseudomonas aeruginosa.
Excerpt: as §1, §3

Experiment [2] relates to P. aeruginosa Stone 130. The experiment can be described thus: In Vitro MIC, Agar Dilution Method. To be noted: Pseudomonas aeruginosa, STONE130.
Excerpt: as §1, §3

In the next experiment the test system is P. aureus Giorgid. The experiment can be described thus: In Vitro MIC, Agar Dilution Method.
Excerpt: as §1, §3

A further experiment concerns P. mirabilis 190. As to the kind of experiment: In Vitro MIC, Agar Dilution Method. To be noted: Proteus mirabilis.
Excerpt: as §1, §3

The subject of the next experiment is S. aureus 1059B. The experiment can be described thus: In Vitro MIC, Agar Dilution Method. To be noted: Staphylococcus aureus.
Excerpt: as §1, §3

The subject of another experiment is S. aureus ATCC 25923. As to the kind of experiment: In Vitro MIC, Agar Dilution Method. To be noted: Staphylococcus aureus, ATCC25923.
Excerpt: as §1, §3

Another experiment deals with S. aureus Smith. The experiment can be described thus: In Vitro MIC, Agar Dilution Method. To be noted: Staphylococcus aureus.
Excerpt: as §1, §3

For a further experiment, the system named is S. marscescens SM. As to the kind of experiment: In Vitro MIC, Agar Dilution Method.
Excerpt: as §1, §3

For another experiment, the system named is P. aeruginosa K77/61. As to the kind of experiment: In Vitro MIC, Broth Dilution Method. Conditions: Pseudomonas aeruginosa, K77/61, read-out: In Vitro MIC.
Excerpt: as §1, §2

Consider `CO/N=C(\C(=O)N[C@@H]1C(=O)N2C(C(=O)O)=C(COC(=O)c3ccc(O)c(O)c3)CS[C@H]12)c1csc(N)n1` [Compound A, [6R-[6 alpha,7 beta(Z)]]-7-[[(2-amino-4-thiazolyl)(methoxyimino)acetyl]amino]-3-[[[(3,4-dihydroxyphenyl)carbonyl]oxy]methyl]-8-oxo-5-thia-1-azabicyclo[4.2.0]oct-2-ene-2-carboxylic acid monosodium salt], for which the MIC with P. aeruginosa B came out at 2 µg/mL; against P. aeruginosa Stone 130 [1], 2 µg/mL; against P. aeruginosa ATCC 27853, 8 µg/mL; against P. aeruginosa 1973E it was 4 µg/mL; in the experiment with P. aeruginosa 503-56, 4 µg/mL; against P. aeruginosa 5700 it was 8 µg/mL. For the same compound, the MIC was 4 µg/mL against P. aeruginosa 765; 2 µg/mL in the experiment with P. aeruginosa 8710; 1 µg/mL with P. aeruginosa K77/WT; 0.5 µg/mL with P. aeruginosa 8780; 2 µg/mL against P. aeruginosa 6148B.
For `CC(=O)Oc1ccc(C(=O)OCC2=C(C(=O)O)N3C(=O)[C@@H](NC(=O)/C(=N\OCC(N)=O)c4csc(N)n4)[C@H]3SC2)cc1OC(C)=O` [Compound B, [6R-[6 alpha,7 beta(Z)]]-3-[[[3,4-bis(acetyloxy)benzoyl]oxy]methyl]-7-[[[2-amino-4-thiazolyl][(2-amino-2-oxoethoxy)imino]acetyl]amino]-8-oxo-5-thia-1-azabicyclo[4.2.0]oct-2-ene-2-carboxylic acid monosodium salt], the MIC in the experiment on E. cloaca P99 was determined as 32 µg/mL; in the experiment with E. cloacae 9570A it was 1 µg/mL; against E. coli 48 it was 0.031 µg/mL; against K. pneumoniae A, 0.125 µg/mL; against P. aeruginosa 130, 4 µg/mL; in the experiment with P. aeruginosa 185/H it was 2 µg/mL. The MIC in the experiment with P. aeruginosa Stone 130 [2] amounted to 4 µg/mL; against P. aureus Giorgid, 8 µg/mL; in the experiment with P. mirabilis 190 it was 0.063 µg/mL; in the experiment with S. aureus 1059B it was 4 µg/mL; in the experiment on S. aureus ATCC 25923, 2 µg/mL; against S. aureus Smith, 4 µg/mL. In the experiment with S. marscescens SM, this compound showed an MIC of 1 µg/mL.
As for `CC(C)(O/N=C(\C(=O)N[C@@H]1C(=O)N2C(C(=O)O)=C(COC(=O)c3ccc(O)c(O)c3)CS[C@H]12)c1csc(N)n1)C(=O)O` [Compound C, [6R-[6 alpha,7 beta(Z)]]-7-[[(2-amino-4-thiazolyl)(1-carboxy-1-methylethoxy)-imino]acetyl]amino]-3-[[(3,4-dihydroxybenzoyl)oxy]methyl]-8-oxo-5-thia-1-azabicyclo[4.2.0]oct-2-ene-2-carboxylic acid disodium salt], the minimal inhibitory concentration (MIC) was 0.125 µg/mL in the experiment with P. aeruginosa B; 2 µg/mL with P. aeruginosa 1973E; 2 µg/mL in the experiment with P. aeruginosa 5700; 8 µg/mL with P. aeruginosa 765; 0.063 µg/mL in the experiment with P. aeruginosa 8710; over 0.008 µg/mL in the experiment on P. aeruginosa K77/61. For the same compound, the MIC with P. aeruginosa 8780 is over 0.008 µg/mL.
Regarding `CCN1CCN(C(=O)N[C@@H](C(=O)N[C@@H]2C(=O)N3C(C(=O)O)=C(COC(=O)c4ccc(O)c(O)c4)CS[C@H]23)c2ccccc2)C(=O)C1=O` [Compound D, [6R-[6 alpha,7 beta(R*)]]-7-[[[[(4-ethyl-2,4-dioxo-1-piperazinyl)carbonyl]amino]phenylacetyl]amino]-3-[[(3,4-dihydroxy)benzoyl]oxy]-methyl]-8-oxo-5-thia-1-azabicyclo(4.2.0)oct-2-ene-2-carboxylic acid monosodium salt], the minimum inhibitory concentration (MIC) against P. aeruginosa 8710 was 0.125 µg/mL.

The term MIC denotes the least concentration at which growth counts as inhibited.
